{"source": "patent US6673798B2", "about": "“PDGF receptor kinase inhibitory compounds, their preparation, purification and pharmaceutical compositions including same” (Yissum Research Development Company of the Hebrew …, priority 1999, dated 2004)", "key": {"PDGFβR": {"molecular_target": "T1, PDGFβR (Mus musculus, UniProt P05622)", "T1 construct": "A preparation of purified PDGFR from Swiss 3T3 cell membranes was used; endogenous in cells", "T1 sequence (P05622 32-1098)": "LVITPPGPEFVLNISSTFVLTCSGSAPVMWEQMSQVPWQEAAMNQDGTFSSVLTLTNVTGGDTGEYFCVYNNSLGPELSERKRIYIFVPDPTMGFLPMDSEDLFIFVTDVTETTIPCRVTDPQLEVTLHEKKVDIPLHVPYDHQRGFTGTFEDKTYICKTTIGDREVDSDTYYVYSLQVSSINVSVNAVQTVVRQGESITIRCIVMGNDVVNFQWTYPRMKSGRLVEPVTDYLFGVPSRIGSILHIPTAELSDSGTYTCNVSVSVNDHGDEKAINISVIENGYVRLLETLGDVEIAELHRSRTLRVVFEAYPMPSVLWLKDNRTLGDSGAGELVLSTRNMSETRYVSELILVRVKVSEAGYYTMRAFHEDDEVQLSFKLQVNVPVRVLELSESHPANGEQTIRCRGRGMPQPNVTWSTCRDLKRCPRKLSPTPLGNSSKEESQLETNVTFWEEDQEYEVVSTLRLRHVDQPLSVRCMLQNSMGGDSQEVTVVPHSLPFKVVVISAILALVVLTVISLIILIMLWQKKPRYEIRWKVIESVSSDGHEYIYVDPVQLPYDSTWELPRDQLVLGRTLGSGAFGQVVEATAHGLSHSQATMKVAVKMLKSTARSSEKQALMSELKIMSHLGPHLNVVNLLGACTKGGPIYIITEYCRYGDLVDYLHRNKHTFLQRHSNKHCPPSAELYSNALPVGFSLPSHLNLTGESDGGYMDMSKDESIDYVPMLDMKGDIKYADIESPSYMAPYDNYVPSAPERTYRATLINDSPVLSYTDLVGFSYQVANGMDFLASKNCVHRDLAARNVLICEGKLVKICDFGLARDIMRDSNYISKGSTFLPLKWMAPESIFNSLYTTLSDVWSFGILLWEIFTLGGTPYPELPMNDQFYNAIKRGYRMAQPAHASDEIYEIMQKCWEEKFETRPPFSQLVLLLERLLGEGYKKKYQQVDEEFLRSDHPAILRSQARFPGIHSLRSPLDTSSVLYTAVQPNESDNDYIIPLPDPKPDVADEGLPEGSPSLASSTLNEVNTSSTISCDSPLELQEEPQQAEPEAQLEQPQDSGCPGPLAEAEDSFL", "experiment": "PDGF-induced PDGFβR autophosphorylation in intact Swiss 3T3 cells (FIG. 8)", "assay_type": "cell-based", "conditions": "at 1 μM", "procedure": "Kinase reactions, using an isolated PDGFβR preparation, in the presence of 0.03-3 μM tyrphostin, were conducted, utilizing [γ-^32P]ATP as probe. Densitometric evaluation, relative to control lacking the tyrphostin inhibitor (100%), results in the percent autokinase activity, presented in Table 8 and in the dose-response curves for the purified transoid isomers AG2033 (FIG. 6) and AG2043 (FIG. 7). Further comparison between the resulting autoradiogrms for each pair of geometrical isomers AG2033 and AG2034 (upper panel); AG2043 and AG2044 (lower panel), for their inhibitory activity towards PDGF-induced PDGFβR autophosphorylation (concentration range: 0.1-10 μM) in intact cells is presented in FIG. 8. […] Similar potency relation exists between the AG2043 and AG2044 isomers."}, "PAEC/PDGFR cells [1]": {"test_system": "PAEC/PDGFR cells", "experiment": "Proliferation of PDGFβR transfected PAEC cells ([3H]thymidine incorporation)", "assay_type": "cell-based, porcine", "conditions": "Sus scrofa, read-out: IC50 (50% inhibition of proliferation) PDGFβR", "procedure": "(§1) Porcine aortic endothelial cells (PAEC), stably transfected with either PDGF-receptor (PAEC/PDGFβR cells, kindly provided by Dr. L. Claesson-Welsh, Uppsala, Sweden) or VEGF-receptor KDR (PAEC/KDR), respectively, were used as previously described. Cells were routinely cultured in Ham's F-12 medium supplemented with geneticin (0.4 mg/ml) and 10% FCS.\n(§2) Assessment of cell proliferation ([^3H]thymidine incorporation assay): PAEC/KDR and PAEC/PDGFR cells, grown in Ham's F12 medium containing 10% FCS were seeded sparsely in 12 well culture dishes. After 24 hours, cells were washed two times with Ham's F12 medium containing 1% FCS and incubated for additional 48 hours with one renewal of medium. Cells were incubated for 15 minute with different concentrations of AG2033 (0.1; 1 and 10 μM) or with the solvent DMSO alone, stimulated with 3 ng/ml VEGF or with 15 ng/ml PDGF-BB for 20 hours, followed by addition of 0.25 μCi of [^3H]-thymidine/ml (Amersham) for two hours. High molecular weight [^3H]-radioactivity was precipitated using 5% trichloroacetic acid at 4° C. for 30 minutes. After two washes with ice-cold H2O, [^3H]-radioactivity was solubilized in 1 M NaOH (400 μl/well) at room temperature for 8 minutes, neutralized by the addition of 2 M HCL (400 μl/well), and quantitated by liquid scintillation counting. […]"}, "PAEC/KDR cells [2]": {"test_system": "PAEC/KDR cells", "experiment": "Proliferation of KDR transfected PAEC cells ([3H]thymidine incorporation)", "assay_type": "cell-based, porcine", "conditions": "Sus scrofa, read-out: IC50 (50% inhibition of proliferation) KDR", "procedure": "as §1, §2"}, "PAEC/PDGFR cells [3]": {"test_system": "PAEC/PDGFR cells", "experiment": "Migration of PDGFβR transfected PAEC cells toward PDGF-BB (Boyden chamber)", "assay_type": "cell-based, porcine", "conditions": "Sus scrofa, PDGF-BB 10 ng/ml, read-out: IC50 (50% inhibition of migration) PDGFβR", "procedure": "(§3) Assessment of cell migration (Chemotaxis assay): The chemotactic response of HCASMC, PAEC/KDR and PAEC/PDGFR cells was assessed using the modified Boyden chamber (Neuro Probe, Inc.) and collagen-coated polycarbonate filters (Nucleopore) with pore diameters of 8 μm as previously described. Briefly, PAEC/KDR and PAEC/PDGFR cells were cultivated and assayed in Ham's F12 medium containing 10% FCS. HCASMC were cultivated in SmGM-2 (clonetics) and assayed in SmBM-WM containing 10% FCS and 0.1% BSA. To the medium in the lower part of the Boyden chamber, either VEGF or PDGF-BB (10 ng/ml, respectively) were added. AG2033 was added to both upper and lower chamber parts. Suspended cells were given 4 hours for migration, after a preincubation period of 15 minute in AG2033. The number of cells that migrated without PDGF-BB or VEGF stimulation was referred to as 100% migration (chemokinesis). The assay was performed in triplicate, and five medium-power fields were counted per well using a light microscope (Jenalab).\n(§4) Evaluation of PDGFβR or KDR stably transfected PAEC cells migration toward the respective growth factors, PDGD-BB and VEGF (10 ng/ml, respectively), in the presence of the purified AG2033 isomer, was conducted in a Boyden chamber (see experimental section, above). […]"}, "PAEC/KDR cells [4]": {"test_system": "PAEC/KDR cells", "experiment": "Migration of KDR transfected PAEC cells toward VEGF (Boyden chamber)", "assay_type": "cell-based, porcine", "conditions": "Sus scrofa, VEGF 10 ng/ml, read-out: IC50 (50% inhibition of migration) KDR", "procedure": "as §3, §4"}, "porcine SMC": {"test_system": "porcine SMC", "experiment": "Inhibition of SMC proliferation and recovery (cell count)", "assay_type": "cell-based", "conditions": "10 μM", "procedure": "Smooth muscle cells (SMC) were obtained under aseptic conditions from porcine abdominal aortas. Each artery was cut open and the endothelial surface mechanically scraped. The vessels were then cut into 2 mm^2 fragments which were placed in culture dishes with Dulbecco's modified Eagle's medium (DMEM) supplemented with 15% (v/v) fetal calf serum (FCS), 100 u/ml penicillin, 100 μg/ml streptomycin, and […]. The tissue fragments were then placed in an incubator at 37° C. under 9% CO2 atmosphere until SMC outgrowth was detected (typically within 3-7 days). […] For experiments testing the effect of tyrphostins on growth inhibition and recovery (see below), SMC from passages 1-3 were replated in 15 mm wells pretreated with 3 μg/cm^2 fibronectin (Biological Industries, Kibbutz Beit Haemek, Israel) at 15,000 cells/well.\nInhibition of cell proliferation and recovery: Monolayer cell growth inhibition and recovery experiments were repeated 3 or 4 times. Each experiment was performed in triplicate. Approximately 15,000 cells (SMC or PAEC) in 1 ml of culture medium supplemented with either 15% FCS (SMC) or 10% FCS (PAEC) were seeded on day 0 in 15 mm-wells precoated with fibronectin (SMC) or uncoated (PAEC). Cultures were treated with 10 μM of the following tyrphostin compounds: AG2033, AC2034, AG2043 and AG2044 (for SMC) or AG2033 (for PAEC) dissolved in 0.1% DMSO on days 1 and 3. On day 7, cultures were washed and the cells allowed to recover. Typically cells were counted on days 3 and 6 for inhibition, and on day 13 for recovery. The medium supplemented with serum (DMEM for SMC and Ham's F12 for PAEC) was changed every other day throughout the experiment.\nCells were grown in the presence of the specified tyrphostins and were counted on days 3, 6 and 13 in culture. On day 7 the cultures were washed and the cells allowed to recover. […] The inhibitory effect of all three compounds was reversible, and the cells resumed normal growth response as soon as the treatment with the tyrphostins was withdrawn."}}}
{"smiles": "Cc1nc2cc3nc(-c4ccccc4)cnc3cc2n1C", "note": "[AG2033, 1,2-dimethyl-6-phenyl imidazolo[5,4-g]quinoxaline]", "values": [{"measurement": "inhibitory activity towards PDGF-induced PDGFβR autophosphorylation in intact cells", "setting": "PDGFβR", "value": "marked inhibitory activity"}, {"measurement": "IC50", "setting": "PAEC/PDGFR cells [1]", "value": 2.5, "unit": "µM"}, {"measurement": "IC50", "setting": "PAEC/KDR cells [2]", "value": "> 10", "unit": "µM"}, {"measurement": "IC50", "setting": "PAEC/PDGFR cells [3]", "value": 5, "unit": "µM"}, {"measurement": "IC50", "setting": "PAEC/KDR cells [4]", "value": "> 10", "unit": "µM"}, {"measurement": "melting point", "value": 275, "unit": "°C"}]}
{"smiles": "Cc1nc2cc3nc(-c4cccs4)cnc3cc2n1C", "note": "[AG2043, 1,2-dimethyl-6-(2-thiophene) imidazolo[5,4-g]quinoxaline]", "values": [{"measurement": "toxic effect on the cells", "setting": "porcine SMC; SMC", "value": "without having a substantial toxic effect"}, {"measurement": "mean reduction in SMC count by day 3", "setting": "porcine SMC; compared to DMSO treated control cells", "value": 46, "unit": "%"}, {"measurement": "reversibility of the inhibitory effect on SMC proliferation", "setting": "porcine SMC; cultures washed on day 7, recovery counted day 13", "value": "completely reversible"}]}
